The text below walks through data of PMC12631937, “Autologous Organoid‐T Cell Co‐Culture Platform for Modeling of Immune‐Mediated Drug‐Induced Liver Injury” (Advanced Science, 2025).

Data set [1] deals with HLO microarrays (iPSC-derived human liver organoids). The experiment in a line: HLO microarray cytotoxicity, DRAQ7-positive nuclei (dead cells). Type of data set: cell-based. The conditions noted are these: 168 h, seven-day repeated-dose treatment, Figure 2C, read-out: Cell death (% Draq7+ cells) IC50. As for the experimental part: HLO microarrays were exposed to seven‐day repeated‐dose treatment of Chlorpromazine and Flucloxacillin across five half‐log‐spaced concentrations, with vehicle‐treated wells serving as controls. Following treatment, cell viability was assessed by quantifying total cellular ATP content using the CellTiter‐Glo assay, while cytotoxicity was determined by counting DRAQ7‐positive nuclei (dead cells) in organoids. Hepatic functionality was further evaluated by measuring albumin secretion in the culture supernatant via ELISA (Figure 2A). Chlorpromazine (Sigma) and Streptomycin (MCE) were dissolved in DMSO, and 5–7 serial dilutions of 200 × stock solutions were prepared alongside corresponding vehicle controls (0.5% DMSO). Aliquots were frozen to ensure consistency across experiments. On the day of treatment, aliquots were thawed and diluted in liver maturation medium to achieve final working concentrations. […] Dose‐response curves and IC50 values were determined by nonlinear regression of log‐transformed compound concentrations (6‐8 point serial dilutions including vehicle) against normalized viability data. […] To contextualize in vitro toxicity data with human exposure levels, Margin of Safety (MOS) values were calculated as the ratio of the in vitro IC50 to the compound's reported clinical maximum plasma concentration (MOS = IC50 / Cmax).

For data set [2] the test system is unchanged. Nature of the data set: cells. The method, then:
HLO microarrays were exposed to seven‐day repeated‐dose treatment of Chlorpromazine and Flucloxacillin across five half‐log‐spaced concentrations, with vehicle‐treated wells serving as controls. Following treatment, cell viability was assessed by quantifying total cellular ATP content using the CellTiter‐Glo assay, while cytotoxicity was determined by counting DRAQ7‐positive nuclei (dead cells) in organoids. Hepatic functionality was further evaluated by measuring albumin secretion in the culture supernatant via ELISA (Figure 2A).
Chlorpromazine (Sigma) and Streptomycin (MCE) were dissolved in DMSO, and 5–7 serial dilutions of 200 × stock solutions were prepared alongside corresponding vehicle controls (0.5% DMSO). Aliquots were frozen to ensure consistency across experiments. On the day of treatment, aliquots were thawed and diluted in liver maturation medium to achieve final working concentrations. Flucloxacillin (Sigma) was freshly prepared in liver maturation medium immediately prior to each dosing. HLO microarrays were treated over a 7‐day period, with a single re‐dosing and media refreshment on day 3. The highest concentrations tested for all compounds were 1000 µM.
Cell viability was assessed on day 7 using the CellTiter‐Glo 3D Cell Viability Assay (Promega, Cat. G9682). Luminescence was recorded using a Spectra Max iD3 microplate reader (Molecular Devices) following the manufacturer's recommended settings. Viability data from compound‐treated HLOs were normalized to the corresponding vehicle controls on the same plate.
Dose‐response curves and IC50 values were determined by nonlinear regression of log‐transformed compound concentrations (6‐8 point serial dilutions including vehicle) against normalized viability data. Curve fitting was performed using a variable Hill slope and constraining the top and bottom of the curve to 100 and 0, respectively (GraphPad Prism, GraphPad Software, La Jolla, CA, USA). To contextualize in vitro toxicity data with human exposure levels, Margin of Safety (MOS) values were calculated as the ratio of the in vitro IC50 to the compound's reported clinical maximum plasma concentration (MOS = IC50 / Cmax).

Data set [3] has the same test system. The experiment in a line: Albumin secretion of HLO microarrays in culture supernatant (ELISA). Format: cell-based. To be noted: 168 h, seven-day repeated-dose treatment, Figure 2E, read-out: Albumin release (% of control) IC50. From the text:
Hepatic functionality was further evaluated by measuring albumin secretion in the culture supernatant via ELISA (Figure 2A). […] Aliquots were frozen to ensure consistency across experiments. On the day of treatment, aliquots were thawed and diluted in liver maturation medium to achieve final working concentrations. Flucloxacillin (Sigma) was freshly prepared in liver maturation medium immediately prior to each dosing.
In general terms: In an ELISA, binding on a coated surface is turned into a signal by an enzyme label.

For data set [4] the following is noted: reported clinical Cmax; cited from earlier work.
Data set [5] has as its system CD8+ T cells. Nature of the data set: Monocyte-derived dendritic cell (mDC) priming assay of naïve CD8+ T cells, flow cytometry. Type of data set: cell-based, human. From the text: Peripheral blood samples were collected from four HLA‐B*57:01 carriers and four HLA‐B*57:01 non‐carrier donors (Figure 4B). To generate antigen‐specific CD8⁺ T cells, we employed a monocyte‐derived dendritic cell (mDC) priming assay (Figure 4A). Naïve CD8⁺ T cells and monocytes were isolated from peripheral blood mononuclear cells (PBMCs) of each donor. mDCs were differentiated using IL‐4 and GM‐CSF, followed by maturation and activation with LPS and IFN‐γ. Mature mDCs were then loaded with Flucloxacillin or media alone and used to prime naïve CD8⁺ T cells. After priming, CD8⁺ T cells (i.e., Flucloxacillin‐primed CD8^+ T cells) were expanded in the presence of a low dose of IL‐15 for 10 days, followed by CFSE labeling and re‐stimulation with freshly loaded mDCs under the same conditions. Flow cytometry was used to assess CD8⁺ T cell maturation, proliferation, and post‐priming activation. […] T cell antigen‐specific activation efficacy was evaluated using multi‐color flow cytometry with Diva and FlowJo (BD software). T cell proliferation and activation were assessed using CFSE (1 µM, ThermoFisher) for proliferation, Human TruStain FcX for Fc receptor blocking, and a panel of antibodies including CD3 (clone UCHT1), CD8 (clone 3B5), CD4 (clone RPA‐T4), CD45RO (clone UCHL1), CD107a (clone H4A3), HLA‐DR (clone TU36), CD137 (clone 4B4), and CD69 (clone FN50). […]
On the technique in general: In flow cytometry, cells or beads pass a laser one at a time.

Data set [6] concerns HLOs co-cultured with autologous Flucloxacillin-primed CD8+ T cells. Nature of the data set: Autologous HLO - CD8+ T cell co-culture, immune-mediated hepatocyte injury. Type of data set: cell-based, human. The method, then: To model immune‐mediated liver injury, Flucloxacillin‐primed CD8⁺ T cells from three HLA‐B*57:01 carrier and three HLA‐B*57:01 non‐carrier donors were co‐cultured with autologous HLOs pre‐treated with Flucloxacillin (Figure 5A). Co‐cultures with unprimed CD8⁺ T cells served as controls to exclude non‐specific T cell reactivity. HLOs were generated from iPSC lines derived from donor PBMCs and exposed to 100 µM Flucloxacillin for 72 h before initiating co‐culture. On day 23 of maturation, HLOs were co‐cultured with unprimed or Flux‐primed CD8⁺ T cells to assess immune‐mediated hepatocyte injury. Liver damage was quantified using immunofluorescence‐based detection of DRAQ7⁺ dead cells and measurement of cytokeratin‐18 (CK‐18) release, a highly specific biomarker of early‐stage DILI. CK‐18, an intermediate filament protein expressed in hepatocytes and cholangiocytes but absent in immune cells, provided greater specificity for hepatocyte death than traditional markers such as LDH or ATP.
Culture supernatants were analyzed to quantify albumin and CK18 levels using sandwich ELISA kits (Albumin, Abcam, and M65 EpiDeath CK18Diapharma) according to manufacturer's protocols. TNFα and Granzyme B secretion were measured using the Luminex Discovery Assay kit (R&D Systems/Biotechne) according to the manufacturer's protocol.
Following initial 12 day priming as described above, CD8^+ T cells were stained with CFSE (5 µM, Fisher Scientific, Catalog No. 11‐0699‐42) and resuspended in an optimized co‐culture media. This media consisted of a 1:1 mixture of complete RPMI (RPMI + 1% penicillin/streptomycin and 150 IU mL^−1 IL‐2) and modified liver maturation media (excluding HGF, dexamethasone and hydrocortisone) supplemented with 10 IU mL^−1 IL‐7 and 10 IU/ml IL‐15. Labeled CD8⁺ T cells were added to mature (day 23) HLO microarray cultures at effector‐to‐target (E:T) ratios of 1:1 and 1:5. These ratios were chosen to reflect the localized enrichment of cytotoxic lymphocytes observed during immune‐mediated liver injury, including periportal CD8⁺ T cell infiltration in flucloxacillin‐induced DILI (PMID: 24 731 753).^[ [14] ^] Prior to co‐culture, HLO were pretreated with 100 µM Flucloxacillin for 72 h. The co‐culture was maintained for 72 h with media exchanges performed every 24 h. When indicated, T cell activation was induced using anti‐CD3 (1 µg ml^−1, BioLegend) and anti‐CD28 (1 µg ml^−1, BioLegend) antibodies.

[7] abbreviates: Homo sapiens, 168 h, read-out: Cell Viability (% of control) IC50, ATP-based, seven-day repeated-dose treatment, Figure 2D.
Where [8] appears, read: Homo sapiens, read-out: average IC50, average across three independent iPSC-derived HLO lines (donors), Figure S2.

What is called IC50 is the midpoint of a concentration-inhibition curve. By Cmax is commonly meant the highest concentration seen after dosing.

Consider `CN(C)CCCN1c2ccccc2Sc2ccc(Cl)cc21` [Chlorpromazine], for which the IC50 stood at 19.7 µM in data set [1]; 14.5 µM in data set [2] (setting [7]); 11.1 µM in data set [2] (setting [8]); 14.4 µM in data set [2] (read-out: Cell Viability (% of control) IC50, ATP-based, seven-day repeated-dose treatment, Figure 2D); 6.36 µM in data set [3]. Further, the “margin of safety (MOS = IC50 / Cmax)” value in data set [2] (human, 7 days) was “≈ 15.3”. For the same compound, in data set [4], the Cmax was around 0.94 µM.

As to `Cc1onc(-c2c(F)cccc2Cl)c1C(=O)N[C@@H]1C(=O)N2[C@@H]1SC(C)(C)[C@@H]2C(=O)O` [Flucloxacillin], the IC50 in data set [1], in data set [2] (setting [7]) and in data set [3] was above 1000 µM each time. Moreover, in data set [2], the “cytotoxicity at clinically relevant exposures” value is “no cytotoxicity”. Further, the “CD8+ T cell response to priming” value in data set [5] (HLA-B*57:01 non-carrier donors) is listed as “did not exhibit a comparable response”. The “increase in T cell proliferation (CFSElow cells) and activation marker expression relative to media-alone priming” value in data set [5] (two of four HLA-B*57:01-positive donors (robust responders), DCs pulsed with 1000 µM) is listed as “over 2 fold”. In addition, in data set [6] (primed CD8+ T cells from HLA-B*57:01 carrier donors 534 and 622), the “secretion of TNF-α and Granzyme B” value is listed as “increased secretion”. Besides, in data set [6] (primed CD8+ T cells from HLA-B*57:01 carrier donors 534 and 622, HLOs pre-treated with 100 µM for 72 h), the CK-18 release result was “significantly elevated”. For the same compound, in data set [6] (primed CD8+ T cells from HLA-B*57:01 carrier donors 534 and 622, HLOs pre-treated with 100 µM for 72 h, 72 h co-culture), the “increase in DRAQ7+ cell death compared to T cell-free controls” value is recorded as 4 fold. Besides, in data set [6] (primed T cells from weak-responder HLA-B*57:01 carriers and all non-carrier donors), the “hepatocyte death or CK-18 release” value was “failed to induce hepatocyte death”. Also, the Cmax in data set [4] is around 31 µM.

With `[H]/N=C(/N)N[C@H]1[C@H](O)[C@@H](O)[C@H](O[C@@H]2O[C@@H](C)[C@](O)(C=O)[C@H]2O[C@@H]2O[C@@H](CO)[C@H](O)[C@@H](O)[C@@H]2NC)[C@@H](N/C(N)=N\[H])[C@@H]1O` [Streptomycin], the “cytotoxicity at clinically relevant exposures” value in data set [2] is “no cytotoxicity”. The IC50 in data set [2] (setting [8]) was determined as 341 µM. In addition, the Cmax in data set [4] is around 72.2 µM.
